The supplement of paper PMC10307832

How the values were obtained:
Experiment in all cases: relative viability (nuclei count vs DMSO), 5 days (fraction); higher = more cells survive
[1] = compound: C[C@]12O[C@H](C[C@]1(O)CO)n1c3ccccc3c3c4c(c5c6ccccc6n2c5c31)CNC4=O [Lestaurtinib] + Nc1ncn([C@H]2C[C@H](O)[C@@H](CO)O2)c(=O)n1 [Decitabine] (partner 2 µM)
In short: (§1)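 Lung cancer cell lines, seeded in 1536-well plates, were treated the following day by pin tool with a single drug or with five library-drug doses (not always all listed) in √10 steps on top of a fixed anchor-drug dose. Cells were fixed and nuclei stained in one step after 5 days, and nuclei were counted. Relative viability is the nuclei count for treated wells divided by that for vehicle wells, reported as medians of duplicate plates.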

TPCA-1 + OSI-027 = compound: C1=CC(=CC=C1C2=CC(=C(S2)NC(=O)N)C(=O)N)F [TPCA-1] + COc1cccc2cc(-c3nc([C@H]4CC[C@H](C(=O)O)CC4)n4ncnc(N)c34)[nH]c12 [OSI-027] (partner 0.5 µM)
In short: as §1

[2] = compound: C1/C(=C\C2=CC=CS2)/C(=O)/C(=C/C3=CC=CS3)/C1 + Cc1cc(Nc2cc(N3CCN(C)CC3)nc(Sc3ccc(NC(=O)C4CC4)cc3)n2)n[nH]1 [Tozasertib] (partner 0.1 µM)
In short: as §1

[3] = compound: C[C@]12O[C@H](C[C@]1(O)CO)n1c3ccccc3c3c4c(c5c6ccccc6n2c5c31)CNC4=O [Lestaurtinib] + C[C@]1(O)C[C@@H](c2nc(-c3ccc4ccc(-c5ccccc5)nc4c3)c3c(N)nccn32)C1 [Linsitinib] (partner 1 µM)
In short: as §1

Row | Cell Line | relative viability ([1]; first compound 0.005 µM) | relative viability ([1]; first compound 0.01581 µM) | relative viability ([1]; first compound 0.05 µM) | relative viability ([1]; first compound 0.1581 µM) | relative viability ([1]; first compound 0.5 µM) | relative viability (TPCA-1 + OSI-027; first compound 0.04 µM) | relative viability (TPCA-1 + OSI-027; first compound 0.1265 µM) | relative viability (TPCA-1 + OSI-027; first compound 0.4 µM) | relative viability (TPCA-1 + OSI-027; first compound 1.265 µM) | relative viability (TPCA-1 + OSI-027; first compound 4 µM) | relative viability ([2]; first compound 0.2 µM) | relative viability ([2]; first compound 0.6325 µM) | relative viability ([2]; first compound 2 µM) | relative viability ([2]; first compound 6.325 µM) | relative viability ([2]; first compound 20 µM) | relative viability ([3]; first compound 0.005 µM) | relative viability ([3]; first compound 0.01581 µM) | relative viability ([3]; first compound 0.05 µM) | relative viability ([3]; first compound 0.1581 µM) | relative viability ([3]; first compound 0.5 µM)
1 | NCI-H838 | 0.508 | 0.559 | 0.501 | 0.399 | 0.161 | 0.427 | 0.353 | 0.391 | 0.389 | 0.299 | 0.295 | 0.264 | 0.321 | 0.216 | 0.231 | 1.04 | 1.01 | 0.759 | 0.507 | 0.146
2 | A549 | 0.262 | 0.253 | 0.279 | 0.318 | 0.185 |  |  |  |  |  |  |  |  |  |  | 0.621 | 0.596 | 0.229 | 0.148 | 0.174
3 | NCI-H2342 | 0.713 | 0.76 | 0.742 | 0.722 | 0.77 | 0.566 | 0.537 | 0.536 | 0.555 | 0.514 | 0.521 | 0.567 | 0.561 | 0.443 | 0.459 |  |  |  |  | 
4 | NCI-H1623 |  |  |  |  |  | 0.497 | 0.509 | 0.484 | 0.514 | 0.389 | 0.479 | 0.437 | 0.423 | 0.394 | 0.489 |  |  |  |  | 
5 | SK-LU-1 | 0.634 | 0.607 | 0.48 | 0.424 | 0.349 | 0.4 | 0.317 | 0.312 | 0.248 | 0.234 | 0.329 | 0.385 | 0.419 | 0.271 | 0.36 | 0.883 | 0.686 | 0.537 | 0.505 | 0.261
6 | NCI-H2085 | 0.55 | 0.583 | 0.664 | 0.597 | 0.551 | 0.978 | 0.689 | 0.731 | 0.462 | 0.354 | 0.867 | 0.898 | 0.792 | 0.799 | 0.718 | 0.952 | 1.01 | 1.04 | 0.901 | 0.819
7 | NCI-H460 | 0.639 | 0.519 | 0.499 | 0.548 | 0.305 | 0.794 | 0.642 | 0.631 | 0.584 | 0.137 | 0.377 | 0.438 | 0.401 | 0.323 | 0.321 | 0.24 | 0.433 | 0.17 | 0.262 | 0.0291
8 | Calu-6 |  |  |  |  |  |  |  |  |  |  |  |  |  |  |  | 0.908 |  | 0.555 | 0.262 | 0.218
9 | RERF-LC-KJ | 0.869 | 0.791 | 0.563 | 0.562 | 0.241 | 0.674 | 0.489 | 0.565 | 0.532 | 0.485 | 0.475 | 0.566 | 0.533 | 0.46 | 0.455 | 0.964 | 0.946 | 0.535 | 0.619 | 0.516
10 | NCI-H1792 | 0.485 | 0.567 | 0.336 | 0.543 | 0.256 | 0.701 | 0.653 | 0.696 | 0.618 | 0.564 |  |  |  |  |  | 0.757 | 0.56 | 0.386 | 0.243 | 0.144
11 | NCI-H1563 |  |  |  |  |  | 0.784 | 0.766 | 0.827 | 0.712 | 0.688 |  |  |  |  |  | 1.25 | 1.17 | 1.16 | 1.22 | 0.736
12 | NCI-H522 | 0.683 | 0.71 | 0.811 | 0.652 | 0.537 | 0.744 | 0.721 | 0.843 | 0.837 | 0.643 | 0.6 | 0.506 | 0.523 | 0.549 | 0.583 |  |  |  |  | 
13 | NCI-H1299 |  |  |  |  |  |  |  |  |  |  |  |  |  |  |  | 0.985 | 1.02 | 0.688 | 0.504 | 0.499
14 | ChaGo-K-1 | 0.553 | 0.574 | 0.51 | 0.463 | 0.461 | 0.652 | 0.518 | 0.617 | 0.577 | 0.276 | 0.241 | 0.235 | 0.259 | 0.212 | 0.197 |  |  |  |  | 
15 | NCI-H1648 |  | 0.535 |  | 0.762 | 0.512 | 0.266 | 0.244 | 0.247 | 0.208 | 0.257 | 0.598 | 0.559 | 0.467 |  | 0.4 |  |  |  |  | 
16 | EBC-1 |  |  |  |  |  |  |  |  |  |  |  |  |  |  |  | 0.856 | 0.999 | 0.585 | 0.633 | 0.432
17 | NCI-H2228 |  |  |  |  |  | 0.774 | 0.503 | 0.519 | 0.633 | 0.283 | 0.239 | 0.235 | 0.246 | 0.145 | 0.261 | 0.892 | 0.812 | 0.402 | 0.284 | 0.37
18 | IA-LM |  |  |  |  |  |  |  |  |  |  |  |  |  |  |  | 0.459 | 1.02 | 0.927 | 0.792 | 0.553
19 | NCI-H1703 |  |  |  |  |  |  |  |  |  |  |  |  |  |  |  | 0.513 | 0.508 | 0.562 | 0.164 | 0.149
20 | NCI-H2170 | 0.461 | 0.489 | 0.441 | 0.43 | 0.383 | 0.789 | 0.641 | 0.716 | 0.584 | 0.396 | 0.689 | 0.716 | 0.73 | 0.563 | 0.728 |  |  |  |  | 
